Measured values: the NIST ThermoML archive (doi:10.1016/j.fluid.2014.09.024)

How the values were obtained:
[1] = for mass density: 101 kPa, Liquid, Vibrating tube method; for Normal melting temperature: Crystal, visual observation
[2] = refractive index (Na D-line) (dimensionless); settings: 323.15 K; 101 kPa; Liquid; Standard Abbe refractometry
[3] = xn = mol fraction of the nth substance listed; settings: 323.15 K, 101 kPa, Liquid, Vibrating tube method
[4] = refractive index (Na D-line) (dimensionless); xn = mol fraction of the nth substance listed; settings: 323.15 K, 101 kPa, Liquid, Standard Abbe refractometry

COc1ccccc1 [anisole]
[1]
Settings	mass density [kg/m3]
298.15 K	989.42
323.15 K	965.35

Settings	Normal melting temperature [°C]	refractive index
[1]	-37.9	–
[2]	–	1.5012

COc1ccccc1 [anisole] + COC(=O)OC
Settings	mass density, [3] [kg/m3]	refractive index, [4]
x2 = 0	965.35	1.5012
x2 = 0.05	967.83	1.4963
x2 = 0.1001	970.34	1.4908
x2 = 0.2001	975.5	1.4795
x2 = 0.3	980.89	1.4659
x2 = 0.4	986.63	1.4516
x2 = 0.5	992.69	1.437
x2 = 0.5999	999.08	1.4226
x2 = 0.7	1005.87	1.4087
x2 = 0.8	1013.1	1.393
x2 = 0.9	1020.95	1.3754
x2 = 0.95	1025.2	1.3655

COc1ccccc1 [anisole] + Oc1ccccc1
Settings	mass density, [3] [kg/m3]	refractive index, [4]
x1 = 0.05	1044.95	1.535
x1 = 0.1001	1040.35	1.5333
x1 = 0.2	1031.27	1.5296
x1 = 0.3	1022.44	1.5259
x1 = 0.4	1013.68	1.522
x1 = 0.5	1005.11	1.5183
x1 = 0.6103	995.89	1.5144
x1 = 0.7	988.65	1.5114
x1 = 0.8	980.8	1.508
x1 = 0.9001	973.1	1.5047
x1 = 0.9498	969.31	1.503
x1 = 1	965.35	1.5012

COC(=O)OC [dimethyl carbonate]
[1]
Settings	mass density [kg/m3]
298.15 K	1063.26
323.15 K	1029.81

Settings	Normal melting temperature [°C]	refractive index
[1]	5.1	–
[2]	–	1.3546

COC(=O)OC [dimethyl carbonate] + COc1ccccc1
x1 = 1
Settings	mass density [kg/m3]	refractive index
[3]	1029.81	–
[4]	–	1.3546

COC(=O)OC [dimethyl carbonate] + Oc1ccccc1
x1 = 1
Settings	mass density [kg/m3]	refractive index
[3]	1029.81	–
[4]	–	1.3546

Oc1ccccc1 [phenol]
[1]
Settings	mass density [kg/m3]
313.15 K	1058.51
323.15 K	1049.8

Settings	Normal melting temperature [°C]	refractive index
[1]	41.0	–
[2]	–	1.5375

Oc1ccccc1 [phenol] + COC(=O)OC
Settings	mass density, [3] [kg/m3]	refractive index, [4]
x2 = 0	1049.79	1.5375
x2 = 0.0469	1049.78	1.53
x2 = 0.1001	1049.78	1.5222
x2 = 0.2001	1049.38	1.5068
x2 = 0.3	1048.47	1.4912
x2 = 0.3999	1047.12	1.479
x2 = 0.5	1045.31	1.4698
x2 = 0.6	1043	1.4592
x2 = 0.7001	1040.26	1.4428
x2 = 0.8	1037.11	1.4169
x2 = 0.9	1033.66	1.384
x2 = 0.9499	1031.81	1.3675

Oc1ccccc1 [phenol] + COc1ccccc1
x2 = 0
Settings	mass density [kg/m3]	refractive index
[3]	1049.8	–
[4]	–	1.5375
